Legend:
Assay in all cases: relative viability (nuclei count vs DMSO), 5 days (fraction); higher = more cells survive
NCI-H2126 = test system: NCI-H2126
Outline: (§1)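 After 5 days of treatment, lung cancer cells in 1536-well plates were fixed and stained in a single step (final 0.05% Triton X-100, 1% formaldehyde, 1 ug/ml Hoechst) and their nuclei counted on 4× images. Treatment had been applied by pin tool the day after seeding as one drug alone or as a fixed anchor-drug dose with five library-drug doses (not always all listed) in √10 steps. Relative viability is the nuclei count of treated wells divided by that of vehicle wells, and values are medians of duplicate plates.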

LC-2-ad = test system: LC-2-ad
Outline: as §1

EPLC-272H = test system: EPLC-272H
Outline: as §1

NCI-H2087 = test system: NCI-H2087
Outline: as §1

ChaGo-K-1 = test system: ChaGo-K-1
Outline: as §1

LCLC-97TM1 = test system: LCLC-97TM1
Outline: as §1

NCI-H23 = test system: NCI-H23
Outline: as §1

HCC-827 = test system: HCC-827
Outline: as §1

NCI-H520 = test system: NCI-H520
Outline: as §1

NCI-H2347 = test system: NCI-H2347
Outline: as §1

NCI-H2405 = test system: NCI-H2405
Outline: as §1

NCI-H1915 = test system: NCI-H1915
Outline: as §1

NCI-H1666 = test system: NCI-H1666
Outline: as §1

PC-14 = test system: PC-14
Outline: as §1

201T = test system: 201T
Outline: as §1

NCI-H647 = test system: NCI-H647
Outline: as §1

HCC-78 = test system: HCC-78
Outline: as §1

RERF-LC-KJ = test system: RERF-LC-KJ
Outline: as §1

COR-L 105 = test system: COR-L 105
Outline: as §1

H3255 = test system: H3255
Outline: as §1

NCI-H650 = test system: NCI-H650
Outline: as §1

NCI-H661 = test system: NCI-H661
Outline: as §1

Q: How did the relative viability (NCI-H2126; first compound 0.01 µM) turn out when `CCN(CC)CCCCNc1ncc2cc(-c3cc(OC)cc(OC)c3)c(NC(=O)NC(C)(C)C)nc2n1` + CC(=O)c1c(C)c2cnc(Nc3ccc(N4CCNCC4)cn3)nc2n(C2CCCC2)c1=O [Palbociclib] (partner 0.5 µM) was run?
A: 0.353

Q: And the relative viability (NCI-H2126; first compound 0.03162 µM)?
A: 0.37

Q: What about the relative viability (NCI-H2126; first compound 0.1 µM) of the same molecule?
A: 0.399

Q: And the relative viability (NCI-H2126; first compound 0.3162 µM)?
A: 0.345

Q: What about the relative viability (NCI-H2126; first compound 1 µM) of the same molecule?
A: 0.355

Q: What about the relative viability (LC-2-ad; first compound 0.01 µM) of the same molecule?
A: 0.503

Q: And the relative viability (LC-2-ad; first compound 0.03162 µM)?
A: 0.486

Q: And the relative viability (LC-2-ad; first compound 0.1 µM)?
A: 0.491

Q: What about the relative viability (LC-2-ad; first compound 0.3162 µM) of the same molecule?
A: 0.589

Q: And the relative viability (LC-2-ad; first compound 1 µM)?
A: 0.473

Q: And the relative viability (EPLC-272H; first compound 0.01 µM)?
A: 0.286

Q: And the relative viability (EPLC-272H; first compound 0.1 µM)?
A: 0.33

Q: And the relative viability (EPLC-272H; first compound 0.3162 µM)?
A: 0.284

Q: What about the relative viability (EPLC-272H; first compound 1 µM) of the same molecule?
A: 0.339

Q: And the relative viability (NCI-H2087; first compound 0.01 µM)?
A: 0.154

Q: And the relative viability (NCI-H2087; first compound 0.03162 µM)?
A: 0.219

Q: What about the relative viability (NCI-H2087; first compound 0.1 µM) of the same molecule?
A: 0.206

Q: What about the relative viability (NCI-H2087; first compound 0.3162 µM) of the same molecule?
A: 0.234

Q: And the relative viability (NCI-H2087; first compound 1 µM)?
A: 0.225

Q: And the relative viability (ChaGo-K-1; first compound 0.01 µM)?
A: 0.98

Q: What about the relative viability (ChaGo-K-1; first compound 0.03162 µM) of the same molecule?
A: 0.915

Q: What about the relative viability (ChaGo-K-1; first compound 0.1 µM) of the same molecule?
A: 1.08

Q: What about the relative viability (ChaGo-K-1; first compound 0.3162 µM) of the same molecule?
A: 0.997

Q: And the relative viability (ChaGo-K-1; first compound 1 µM)?
A: 0.823

Q: And the relative viability (LCLC-97TM1; first compound 0.01 µM)?
A: 0.205

Q: What about the relative viability (LCLC-97TM1; first compound 0.03162 µM) of the same molecule?
A: 0.203

Q: And the relative viability (LCLC-97TM1; first compound 0.1 µM)?
A: 0.297

Q: And the relative viability (LCLC-97TM1; first compound 0.3162 µM)?
A: 0.238

Q: What about the relative viability (LCLC-97TM1; first compound 1 µM) of the same molecule?
A: 0.218

Q: And the relative viability (NCI-H23; first compound 0.01 µM)?
A: 0.534

Q: And the relative viability (NCI-H23; first compound 0.03162 µM)?
A: 0.451

Q: What about the relative viability (NCI-H23; first compound 0.1 µM) of the same molecule?
A: 0.598

Q: What about the relative viability (NCI-H23; first compound 0.3162 µM) of the same molecule?
A: 0.547

Q: What about the relative viability (NCI-H23; first compound 1 µM) of the same molecule?
A: 0.466

Q: What about the relative viability (HCC-827; first compound 0.01 µM) of the same molecule?
A: 0.49

Q: And the relative viability (HCC-827; first compound 0.03162 µM)?
A: 0.473

Q: What about the relative viability (HCC-827; first compound 0.1 µM) of the same molecule?
A: 0.507

Q: What about the relative viability (HCC-827; first compound 0.3162 µM) of the same molecule?
A: 0.644

Q: What about the relative viability (HCC-827; first compound 1 µM) of the same molecule?
A: 0.454

Q: What about the relative viability (NCI-H520; first compound 0.01 µM) of the same molecule?
A: 0.22

Q: And the relative viability (NCI-H520; first compound 0.03162 µM)?
A: 0.22

Q: And the relative viability (NCI-H520; first compound 0.1 µM)?
A: 0.217

Q: What about the relative viability (NCI-H520; first compound 0.3162 µM) of the same molecule?
A: 0.175

Q: And the relative viability (NCI-H520; first compound 1 µM)?
A: 0.15

Q: What about the relative viability (NCI-H2347; first compound 0.01 µM) of the same molecule?
A: 0.551

Q: And the relative viability (NCI-H2347; first compound 0.03162 µM)?
A: 0.452

Q: What about the relative viability (NCI-H2347; first compound 0.1 µM) of the same molecule?
A: 0.415

Q: What about the relative viability (NCI-H2347; first compound 0.3162 µM) of the same molecule?
A: 0.484

Q: What about the relative viability (NCI-H2347; first compound 1 µM) of the same molecule?
A: 0.387

Q: And the relative viability (NCI-H2405; first compound 0.01 µM)?
A: 0.567

Q: And the relative viability (NCI-H2405; first compound 0.03162 µM)?
A: 0.564

Q: And the relative viability (NCI-H2405; first compound 0.1 µM)?
A: 0.539

Q: What about the relative viability (NCI-H2405; first compound 0.3162 µM) of the same molecule?
A: 0.534

Q: What about the relative viability (NCI-H2405; first compound 1 µM) of the same molecule?
A: 0.52

Q: What about the relative viability (NCI-H1915; first compound 0.01 µM) of the same molecule?
A: 0.655

Q: And the relative viability (NCI-H1915; first compound 0.03162 µM)?
A: 0.528

Q: And the relative viability (NCI-H1915; first compound 0.1 µM)?
A: 0.557

Q: And the relative viability (NCI-H1915; first compound 0.3162 µM)?
A: 0.546

Q: And the relative viability (NCI-H1915; first compound 1 µM)?
A: 0.496

Q: What about the relative viability (NCI-H1666; first compound 0.01 µM) of the same molecule?
A: 0.666

Q: And the relative viability (NCI-H1666; first compound 0.03162 µM)?
A: 0.626

Q: And the relative viability (NCI-H1666; first compound 0.1 µM)?
A: 0.613

Q: What about the relative viability (NCI-H1666; first compound 0.3162 µM) of the same molecule?
A: 0.649

Q: And the relative viability (NCI-H1666; first compound 1 µM)?
A: 0.613

Q: What about the relative viability (PC-14; first compound 0.01 µM) of the same molecule?
A: 0.599

Q: And the relative viability (PC-14; first compound 0.03162 µM)?
A: 0.467

Q: And the relative viability (PC-14; first compound 0.1 µM)?
A: 0.654

Q: And the relative viability (PC-14; first compound 0.3162 µM)?
A: 0.564

Q: And the relative viability (PC-14; first compound 1 µM)?
A: 0.56

Q: What about the relative viability (201T; first compound 0.01 µM) of the same molecule?
A: 0.395

Q: What about the relative viability (201T; first compound 0.03162 µM) of the same molecule?
A: 0.387

Q: What about the relative viability (201T; first compound 0.1 µM) of the same molecule?
A: 0.406

Q: What about the relative viability (201T; first compound 0.3162 µM) of the same molecule?
A: 0.389

Q: And the relative viability (201T; first compound 1 µM)?
A: 0.372

Q: What about the relative viability (NCI-H647; first compound 0.01 µM) of the same molecule?
A: 0.309

Q: And the relative viability (NCI-H647; first compound 0.03162 µM)?
A: 0.42

Q: And the relative viability (NCI-H647; first compound 0.1 µM)?
A: 0.427

Q: And the relative viability (NCI-H647; first compound 0.3162 µM)?
A: 0.497

Q: And the relative viability (NCI-H647; first compound 1 µM)?
A: 0.394

Q: And the relative viability (HCC-78; first compound 0.01 µM)?
A: 0.465

Q: And the relative viability (HCC-78; first compound 0.03162 µM)?
A: 0.448

Q: What about the relative viability (HCC-78; first compound 0.1 µM) of the same molecule?
A: 0.525

Q: And the relative viability (HCC-78; first compound 0.3162 µM)?
A: 0.45

Q: And the relative viability (HCC-78; first compound 1 µM)?
A: 0.465

Q: What about the relative viability (RERF-LC-KJ; first compound 0.01 µM) of the same molecule?
A: 1.07

Q: What about the relative viability (RERF-LC-KJ; first compound 0.03162 µM) of the same molecule?
A: 1.12

Q: And the relative viability (RERF-LC-KJ; first compound 0.1 µM)?
A: 1.2

Q: And the relative viability (RERF-LC-KJ; first compound 0.3162 µM)?
A: 1.13

Q: What about the relative viability (RERF-LC-KJ; first compound 1 µM) of the same molecule?
A: 1.05

Q: What about the relative viability (COR-L 105; first compound 0.01 µM) of the same molecule?
A: 0.398

Q: What about the relative viability (COR-L 105; first compound 0.03162 µM) of the same molecule?
A: 0.393

Q: What about the relative viability (COR-L 105; first compound 0.1 µM) of the same molecule?
A: 0.427

Q: And the relative viability (COR-L 105; first compound 0.3162 µM)?
A: 0.423

Q: And the relative viability (COR-L 105; first compound 1 µM)?
A: 0.405

Q: And the relative viability (H3255; first compound 0.01 µM)?
A: 0.317

Q: What about the relative viability (H3255; first compound 0.03162 µM) of the same molecule?
A: 0.292

Q: What about the relative viability (H3255; first compound 0.1 µM) of the same molecule?
A: 0.388

Q: And the relative viability (H3255; first compound 0.3162 µM)?
A: 0.315

Q: What about the relative viability (H3255; first compound 1 µM) of the same molecule?
A: 0.317

Q: And the relative viability (NCI-H650; first compound 0.01 µM)?
A: 0.282

Q: What about the relative viability (NCI-H650; first compound 0.03162 µM) of the same molecule?
A: 0.369

Q: What about the relative viability (NCI-H650; first compound 0.1 µM) of the same molecule?
A: 0.331

Q: And the relative viability (NCI-H650; first compound 0.3162 µM)?
A: 0.308

Q: What about the relative viability (NCI-H650; first compound 1 µM) of the same molecule?
A: 0.32

Q: And the relative viability (NCI-H661; first compound 0.01 µM)?
A: 0.394

Q: And the relative viability (NCI-H661; first compound 0.03162 µM)?
A: 0.41

Q: And the relative viability (NCI-H661; first compound 0.1 µM)?
A: 0.418

Q: And the relative viability (NCI-H661; first compound 0.3162 µM)?
A: 0.444

Q: What about the relative viability (NCI-H661; first compound 1 µM) of the same molecule?
A: 0.38
